# Tests used:
# [1] = test system: human breast cancer cells (MDA-MB-231); assay: scratch assay, migration of MDA-MB-231 cells; type: cell-based; details: MDA-MB-231, 10 μM, 48 hours; control group 36.19 ± 5.15
# Experimental: (§1) In the scratch assay, the cell migration rate was negatively correlated with the inhibitory effect of the drug component on tumor cell migration ability. The cell migration inhibition experiment was described as follows: tumor cells were cultured in vitro, cells in logarithmic growth phase were collected and seeded evenly in a 24-well plate at a density of 1-2×10^5 cells/well; the cells were cultured in a cell incubator until a monolayer was formed; a scratch tool was used to make a “-” (straight) scratch on the monolayer of cells; the cells were washed 1-3 times with PBS, and a medium (with 2% fetal bovine serum) containing specific test components was added to the culture. Experimental grouping: PBS control group; polypeptide or derivative thereof treatment group (N1-N54), 10 μM. Three independent parallel wells were set up in each group, and the cells were cultured continuously in a cell incubator for 48 hours. […] At least 3 representative images for each well were taken. ImageJ software was used to count the migration distance of the cells, and the cell migration rate was calculated as: cell migration rate (%)=(width of original scratch−width of current scratch)/width of original scratch×100.
# This example was a scratch assay to evaluate the inhibitory effect of the polypeptide or derivative thereof (N1-N54) on the migration ability of human breast cancer cells (MDA-MB-231). The experimental method was as described in Example 2.
# [2] = test system: human colon cancer cells (HCT-116); assay: scratch assay, migration of HCT-116 cells; type: cell-based; details: HCT-116, 10 μM, 48 hours; control group 47.78 ± 6.07
# Experimental: as §1
# This example was a scratch assay to evaluate the inhibitory effect of the polypeptide or derivative thereof (N1-N54) on the migration ability of human colon cancer cells (HCT-116). The experimental method was as described in Example 2.
# [3] = test system: human pancreatic cancer cells (PANC-1); assay: transwell invasion assay, PANC-1 cells; type: cell-based; details: PANC-1 transwell invasion, 10 μM, 24 hours; control group 727 ± 68
# Excerpt: The Transwell chamber system was used in the transwell cell invasion experiment. The chamber has an upper layer and a lower layer, which are separated by an artificial semipermeable membrane in the middle. The upper surface of the semipermeable membrane is coated with a layer of artificial matrigel to simulate extracellular matrix. Cells that have invaded through the matrigel and semi-permeable membrane will attach to the lower surface of the semi-permeable membrane. The invasion ability is evaluated by counting the number of cells on the lower surface of the semi-permeable membrane. The number of cells that have invaded is negatively correlated with the inhibitory effect of the drug on the invasion ability of the tumor cells. Transwell invasion assay was performed as follows: tumor cells were cultured in vitro, cells in logarithmic growth phase were collected, and cell suspension was prepared with fresh serum-free medium at a density of 2-3×10^5 cells/mL. Cells were inoculated, 100 μL/well cell suspension (serum-free medium) in the upper chamber and 600 μL/well complete culture medium in the lower chamber. After incubated in 37° C., 5% CO2 incubator for 4-5 hours, serum-free medium (100 μL/well) was added to the control group, and serum-free medium containing polypeptide or derivative thereof (N1-N54) was added to the upper chamber of the treatment group (100 μL/well), the final concentration of the peptide or derivative thereof in the upper chamber was 10 μM. The cells were incubated continuously for 24 hours, and then fixed with methanol and stained with crystal violet. Images were taken under a microscope and the number of invaded cells was counted with ImageJ.
# This example was the transwell cell invasion experiment to evaluate the inhibitory effect of the polypeptide or derivative thereof (N1-N54) on the invasion ability of human pancreatic cancer cells (PANC-1). The experimental method was as described in Example 4.
# [4] = test system: human lung cancer cells (A549) subcutaneous xenograft; assay: lung cancer subcutaneous xenograft animal model, intravenous injection; type: in vivo, mice (BALB/c-nu/nu); details: intravenous 60 mg/kg once every other day, 20 days; for Weight of tumor (g) (mean ± SD): control 2.53 ± 0.17; for Volume of tumor (mm^3) (mean ± SD): control 3373.26 ± 581.44
# Experimental: Experimental animals: 4-6 weeks old female immunodeficiency mice (BALB/c-nu/nu, Beijing Vital River Laboratory Animal Technology Co., Ltd.).
# Subcutaneous xenograft animal model. The number of cells inoculated subcutaneously vin mice was about 2×10^6/200 μL. When the volume of the subcutaneous tumor was greater than 100 mm^3, the mice were randomly divided into groups and subjected to treatment. When the mass volume of the tumors in model control group reached 2000 mm^3 or the animal dies, the treatment ended. The animals were dissected, the tumors were taken out, and the weight and volume of the tumors were measured. During the period of the entire experiment, the mice were observed and the body weight was measured every other day.
# The method used in the efficacy test on the lung cancer subcutaneous xenograft animal model was as described in Example 5. The lung cancer cells were the human lung cancer cells (A549), and the route of administration was intravenous injection. This example involved a total of 3 experiments to evaluate N1-N15, N16-N30, and N31-N54 respectively. The experimental procedure, route of administration, dosage and frequency of administration, and detection method were all consistent in the three experiments. The experimental groups were model control group and polypeptide or derivative thereof treatment groups (N1-N15, N16-N30, or N31-N54). The drug dosage of the N1-N54 treatment groups was 60 mg/kg, and the treatment time was 20 days.
# [5] = test system: human non-small cell lung cancer cells (A549); assay: scratch assay, migration of A549 cells; type: cell-based; details: A549, 10 μM, 48 hours; control group 75.31 ± 8.19
# Experimental: as §1
# This example was a scratch assay to evaluate the inhibitory effect of the polypeptide or derivative thereof (N1-N54) on the migration ability of human non-small cell lung cancer (A549). The experimental method was as described in Example 2.
# [6] = test system: human lung cancer cells (95D); assay: scratch assay, migration of 95D cells; type: cell-based; details: 10 μM, 48 hours, control group 55.3 ± 3.19
# Experimental: as §1
# This example was a scratch assay to evaluate the inhibitory effect of the polypeptide or derivative thereof (N1-N54) on the migration ability of human lung cancer cells (95D). The experimental method was as described in Example 2.
# [7] = test system: human melanoma cells (A375); assay: scratch assay, migration of A375 cells; type: cell-based; details: A375, 10 μM, 48 hours; control group 44.03 ± 6.21
# Experimental: as §1
# This example was a scratch assay to evaluate the inhibitory effect of the polypeptide or derivative thereof (N1-N54) on the migration ability of human melanoma cells (A375). The experimental method was as described in Example 2.
# [8] = test system: human thyroid cancer cells (FRO); assay: scratch assay, migration of FRO cells; type: cell-based; details: 10 μM, 48 hours, control group 60.34 ± 8.32
# Experimental: as §1
# This example was a scratch assay to evaluate the inhibitory effect of the polypeptide or derivative thereof (N1-N54) on the migration ability of human thyroid cancer cells (FRO). The experimental method was as described in Example 2.
# [9] = test system: human pancreatic cancer cells (PANC-1); assay: scratch assay, migration of PANC-1 cells; type: cell-based; details: PANC-1, 10 μM, 48 hours; control group 66.65 ± 3.37
# Experimental: as §1
# This example was a scratch assay to evaluate the inhibitory effect of the polypeptide or derivative thereof (N1-N54) on the migration ability of human pancreatic cancer cells (PANC-1). The experimental method was as described in Example 2.
Substance,"Migration rate (%) (mean ± SD, P) [1]","Migration rate (%) (mean ± SD, P) [2]","Number of cells (mean ± SD, P), invaded cells [3]",Weight of tumor (g) (mean ± SD) [4],Volume of tumor (mm^3) (mean ± SD) [4],"Migration rate (%) (mean ± SD, P) [5]","Migration rate (%) (mean ± SD, P) [6]","Migration rate (%) (mean ± SD, P) [7]","Migration rate (%) (mean ± SD, P) [8]","Migration rate (%) (mean ± SD, P) [9]"
N13: SEQ ID NO: 1 with deletion of positions 15-18 and positions 1-5 (LAKENVTQD),"7.45 ± 2.6,*** %","12.19 ± 3.22,*** %","161 ± 19,****",0.8 ± 0.17,1320.14 ± 147.22,"19.37 ± 9.40,** %","21.2 ± 4.41,*** %","16.28 ± 4.19,** %","11.99 ± 2.39,*** %","18.28 ± 8.38,*** %"
N14: SEQ ID NO: 1 with deletion of positions 1-5 and addition of one amino acid at the carboxyl terminal (LAKENVTQDAEDNC),"14.59 ± 5.36,* %","12.24 ± 2.32,*** %","157 ± 37,****",0.7 ± 0.26,1431.61 ± 215.71,"15.27 ± 8.75,*** %","32.55 ± 5.71,** %","6.28 ± 1.12,*** %","14.09 ± 2.47,*** %","26.63 ± 6.67,*** %"
N15: SEQ ID NO: 1 with substitution N18R and addition of one amino acid to the carboxyl terminal (YRVRFLAKENVTQDAEDRC),"13.03 ± 5.72,** %","10.41 ± 2.99,*** %","104 ± 9,****",0.95 ± 0.18,1307.48 ± 416.26,"14.98 ± 9.09,** %","24.09 ± 6.40,** %","10.62 ± 2.53,*** %","8.84 ± 2.27,*** %","14.85 ± 5.08,*** %"
N16: SEQ ID NO: 1 with substitution A7R and addition of one amino acid at the carboxyl terminus (YRVRFLRKENVTQDAEDNC),"14.99 ± 6.11,* %","9.39 ± 2.06,*** %","128 ± 25,****",1.05 ± 0.26,1442.4 ± 293.63,"30.57 ± 5.41,** %","17.00 ± 8.00,** %","11.28 ± 3.14,*** %","11.72 ± 4.41,*** %","19.15 ± 4.97,*** %"

# From patent publication US20220280594A1, “APPLICATION OF POLYPEPTIDE OR DERIVATIVE THEREOF” (CHENGDU HUITAI BIOMEDICINE CO., LTD., priority 2019, published 2022)
